From US20090084024A1, “TRAP OR DISPENSER” (EXOSECT LIMITED, priority 2006, published 2009)

Assays:
[1] = Pheromone content of carnauba wax cubes after manufacture and 1 month storage (Soxhlet extraction, Gas Chromatography); type: physicochemical; conditions: 12 mm carnauba wax cubes with 5 mg codlemone
Protocol: Carnauba wax was melted in a pan on a hot plate at 105° C. and was poured into […] mould blocks. Theses were allowed to cool and were weighed, giving an average of 1.4 g per block. From this, it was calculated that 50 mg of codlemone should be added to every 14 g of molten carnauba wax to make ten […] cubes each containing 5 mg. These cubes were made using technical grade 99% pure Codlemone (E,E)-8,10-Dodecadien-1-ol (E8E10-120H) sourced from Bedoukian Research Inc., Danbury, Conn., US and the cubes were then cooled and stored in heat sealed aluminum sachets in a freezer for 1 month. They were then removed from the freezer and the pheromone was extracted from each cube by Soxhlet extraction with ethanol and analyzed by Gas Chromatography.

[2] = Release from two phase 100% carnauba wax lures in Eppendorf tubes (entrainment system, GC/GC-MS, wind tunnel ageing); type: physicochemical; conditions: two-layer carnauba wax; wind tunnel 5 km/h, 27° C.; retested over 20 days; FIG. 1
Protocol: In this experiment Eppendorf tubes were filled with two layers of molten carnauba wax containing different concentrations of Codlemone (E,E)-8,10-Dodecadien-1-ol (E8E10-120H). […] In the lower part of the tube, 0.75 cm^3 of molten carnauba wax containing 5 mg of codlemone and the above compounds was poured in and allowed to solidify. The next step was to add a 0.25 cm^3 cap of molten carnauba wax with 1 mg of codlemone and the above compounds to the top of the solid wax. The concept behind this experiment was that the upper layer would reduce the initial surge of pheromone that is an unwanted characteristic of all known lures when opened for the first time. The hope was that by putting a low dose in the upper layer, the initial surge would be smaller and as the pheromone in this low dose layer disappeared it would be replaced by a steady flow of pheromone permeating through it from the higher concentration layer beneath.
The lures were formulated and immediately frozen and stored in impermeable aluminum sachets until they were placed into an entrainment system comprising a sealed glass sample chamber and an adsorbent tube filled with Porapak Q, obtained from Supelco, Bellefonte, Pa. Semiochemical(s) released over 2-hour intervals were transferred to the adsorbent by use of a vacuum pump, and eluted for GC/GC-MS analysis using dichloromethane. […]

Compound	lost during manufacturing, storage for 1 month and analysis [1] [%]	initial loading remaining in the cubes ([1]; average, stored in heat sealed aluminum sachets in a freezer for 1 month) [%]	release rate of compounds from the Eppendorf wax lures [2]
C/C=C/C=C/CCCCCCCO [Codlemone, (E,E)-8,10-Dodecadien-1-ol]	2.5	97.5	
CCCCCCCCCCCCC [Tridecane (13:HC), Tridecane]			releases much more quickly than Decyl Acetate (10:Ac)
